# Literature values in patent US20130030007A1, “Obesity Small Molecules” (AKRON MOLECULES GMBH, priority 2010, published 2013).
# Non-standard residues stand in square brackets, D forms with d. Residues, ends and D or L forms follow the SMILES beside them. *: point of attachment. Sta = CC(C)C[C@H](N)[C@@H](O)CC(=O)O; Isovaleryl = CC(C)CC(=O)*
# Test system: human ortholog of Drosophila obesity gene
# Set-up: key: O: Obesity - obesity pathway interaction; B: validated binding partner
# Conditions: cited from earlier work
row,SMILES,Type: Type of interaction
1,CN(C)CC1CCCCC1(O)c1cccc(O)c1 (stereo not shown) [O-demethyltramadol],O
2,Oc1ccccc1OC(c1ccccc1)C1CNCCO1 (stereo not shown) [O-desethylreboxetine],B
3,C[C@@H](O)[C@@H]1NC(=O)[C@H](CCCCN)NC(=O)[C@@H](Cc2c[nH]c3ccccc23)NC(=O)[C@H](Cc2ccccc2)NC(=O)[C@@H](NC(=O)[C@H](N)Cc2ccccc2)CSSC[C@@H](C(=O)N[C@H](CO)[C@@H](C)O)NC1=O [Octreotide],B and O
4,C[Si](Cn1cncn1)(c1ccc(F)cc1)c1ccc(F)cc1 [Olymp],O
5,C[C@]12CCC(=O)C=C1CC[C@@H]1[C@@H]2[C@@H](O)C[C@@]2(C)[C@H]1CC[C@]2(O)C(=O)CO [Optef],O
6,NCCc1cc(O)c(O)cc1O [Oxidopamine],B
7,COc1cccc(-c2cc(=O)c3ccccc3o2)c1N [PD 98059],B
8,O=[N+]([O-])c1ccc(-c2nc(-c3ccc(F)cc3)c(-c3ccncc3)[nH]2)cc1 [PD 169316],B
9,CCN(CC)CCCCNc1ncc2cc(-c3cc(OC)cc(OC)c3)c(NC(=O)NC(C)(C)C)nc2n1 [PD 173074],B
10,CCCC(=O)O[C@@H]1[C@@H](C)[C@@]2(O)[C@@H](C=C(CO)C[C@]3(O)C(=O)C(C)=C[C@@H]23)[C@@H]2C(C)(C)[C@]12OC(=O)CCC [PDBU],O
11,O=S(=O)(F)Cc1ccccc1 [PMSF],O
12,O=C1C=C2C(=CCOC2O)O1 (stereo not shown) [Patulin],O
13,CC1=C\[C@H](C)C[C@@]2(C)CC[C@@H](O2)[C@@]23CC[C@@](C)(C[C@@H](O2)[C@H]2O[C@](C)(CC2=O)[C@@H](O)[C@@H]2CC[C@@]4(CCC[C@H](O4)[C@@H](C)C(=O)O[C@@H]4C[C@@H]([C@@]5(O)OCC[C@@H](C)[C@H]5O)O[C@@H]4\C=C\1)O2)O3 [Pectenotoxin II],B
14,Cc1c(N)nc([C@H](CC(N)=O)NC[C@H](N)C(N)=O)nc1C(=O)N[C@H](C(=O)N[C@H](C)[C@@H](O)[C@H](C)C(=O)N[C@H](C(=O)NCCc1nc(-c2nc(C(=O)NCCCN[C@@H](C)c3ccccc3)cs2)cs1)[C@@H](C)O)[C@@H](O[C@@H]1O[C@@H](CO)[C@@H](O)[C@H](O)[C@@H]1O[C@H]1O[C@H](CO)[C@@H](O)[C@H](OC(N)=O)[C@@H]1O)c1c[nH]cn1 [Peplomycin],B
15,CC(C)CC(=O)N[C@H](C(=O)N[C@H](C(=O)N[C@@H](CC(C)C)[C@@H](O)CC(=O)N[C@@H](C)C(=O)N[C@@H](CC(C)C)[C@@H](O)CC(=O)O)C(C)C)C(C)C [Pepstatin A] (Isovaleryl-VV[Sta]A[Sta]-OH),O
16,CCCc1cc(=O)[nH]c(=S)[nH]1 [Procasil],O
17,CC(C)OC(=O)C(C)(C)Oc1ccc(C(=O)c2ccc(Cl)cc2)cc1 [Procetofen],O
18,CC(=O)[C@@]1(O)CC[C@H]2[C@@H]3CCC4=CC(=O)CC[C@]4(C)[C@H]3CC[C@@]21C [Prodix],B
19,CC(C)c1cccc(C(C)C)c1O [Propofol],B
20,Cc1cc(O)c2c(=O)c3c(O)cc(O)c4c5c(O)cc(O)c6c(=O)c7c(O)cc(CO)c8c1c2c(c34)c(c65)c78 [Pseudohypericin],O
21,O[C@]12C=C(c3nccc4c3[nH]c3ccccc34)[C@@H]3CCN(CCCC/C=C\CC1)C[C@@]31C[C@@H]3/C=C\CCCCN3[C@H]12 [manzamine A],O
22,COc1ccc2c(c1)[C@@]13CCCC[C@H]1[C@@H](C2)NCC3 [methoxymorphinan],O
23,CO[C@H](C(=O)[C@@H](O)[C@@H](C)O)[C@@H]1Cc2cc3cc(O[C@H]4C[C@@H](O[C@H]5C[C@@H](O)[C@H](O)[C@@H](C)O5)[C@H](O)[C@@H](C)O4)c(C)c(O)c3c(O)c2C(=O)[C@H]1O[C@H]1C[C@@H](O[C@H]2C[C@@H](O[C@H]3C[C@](C)(O)[C@H](O)[C@@H](C)O3)[C@@H](O)[C@@H](C)O2)[C@H](O)[C@@H](C)O1 [mithramycin A],B
24,CNCc1nnc2n1-c1ccc(Cl)cc1C(c1ccccc1)=NC2 [mono-N-demethyladinazolam],O
25,C[C@@H]1C[C@H]2O[C@@H]2/C=C\C=C\C(=O)Cc2cc(O)cc(O)c2C(=O)O1 [monocillin I],O
26,CN1CC[C@]23c4c5ccc(O[C@@H]6O[C@H](C(=O)O)[C@@H](O)[C@H](O)[C@H]6O)c4O[C@H]2[C@@H](O)C=C[C@H]3[C@H]1C5 [morphine-3-glucuronide],B
27,CC1CC(=O)NN=C1c1cc(-n2ccnc2)cs1 (stereo not shown) [motapizone],O
28,Oc1ccc2c3c1O[C@H]1c4[nH]c5ccccc5c4C[C@@]4(O)[C@@H](C2)N(CC2CC2)CC[C@]314 [naltrindole],B
29,CO[C@H]1CC[C@@H](O[C@H]2C[C@H]([C@]3(C)CC[C@]4(C[C@H](O)[C@@H](C)[C@@H]([C@@H](C)/C=C(\C)C(=O)[C@H](C)C[C@H](C)C(=O)O)O4)O3)O[C@]3(O[C@@H]([C@H]4O[C@@](O)(CO)[C@H](C)C[C@@H]4C)C[C@@H]3C)[C@@H]2C)O[C@@H]1C [nanchangmycin],O
30,[NH2][Pt]1([NH2])[O]CC(=O)[O]1 [nedaplatin],O

# Same assay, conditions: interaction of the small molecule with the human ortholog(s) / Drosophila gene(s) listed in the same table line; cited from earlier work
row,SMILES,Type: Type of interaction
1,O=C(Nc1ccc(OC(F)(F)F)cc1)c1sccc1NCc1ccnc2ccccc12 [OSI 930],O
2,NCC(=O)Nc1ccc(-n2nc(C(F)(F)F)cc2-c2ccc3c(ccc4ccccc43)c2)cc1 [OSU 03012],B
3,NCCO [Olamine],B
4,Cc1nccn1CC1CCc2c(c3ccccc3n2C)C1=O (stereo not shown) [Ondansetron],O
5,CO[C@H]1O[C@H](COS(=O)(=O)O)[C@@H](O[C@@H]2O[C@@H](C(=O)O)[C@@H](O[C@H]3O[C@H](COS(=O)(=O)O)[C@@H](O[C@@H]4O[C@H](C(=O)O)[C@@H](O[C@H]5O[C@H](COS(=O)(=O)O)[C@@H](O)[C@H](O)[C@H]5NS(=O)(=O)O)[C@H](O)[C@H]4O)[C@H](OS(=O)(=O)O)[C@H]3NS(=O)(=O)O)[C@H](O)[C@H]2OS(=O)(=O)O)[C@H](O)[C@H]1NS(=O)(=O)O [Org 31540],B
6,Cc1ccccc1C(OCCN(C)C)c1ccccc1 (stereo not shown) [Orphenadrine],O
7,C[C@@H]1O[C@@H](O[C@H]2C[C@@H](O)[C@]3(CO)[C@H]4[C@H](O)C[C@]5(C)[C@@H](C6=CC(=O)OC6)CC[C@]5(O)[C@@H]4CC[C@]3(O)C2)[C@H](O)[C@H](O)[C@H]1O [Ouabain],B
8,CCN(CC)CC#CCOC(=O)C(O)(c1ccccc1)C1CCCCC1 (stereo not shown) [Oxytrol],O
9,CC(=O)O[C@H]1C(=O)[C@@]2(C)[C@H]([C@H](OC(=O)c3ccccc3)[C@]3(O)C[C@H](OC(=O)[C@H](O)[C@@H](NC(=O)c4ccccc4)c4ccccc4)C(C)=C1C3(C)C)[C@]1(OC(C)=O)CO[C@@H]1C[C@@H]2O [Paclitaxel],B
10,Nc1nc2[nH]cc(CCc3ccc(C(=O)N[C@@H](CCC(=O)O)C(=O)O)cc3)c2c(=O)[nH]1 [Pemetrexed],B
11,CC(=O)CCCCn1c(=O)c2c(ncn2C)n(C)c1=O [Pentoxifylline],B
12,CN1CCN(CCCN2c3ccccc3Sc3ccccc32)CC1 [Perazine],O
13,C=C(C)[C@@H]1CC=C(CO)CC1 [Perillol],B
14,CCC[C@H](N[C@@H](C)C(=O)N1[C@H](C(=O)O)C[C@@H]2CCCC[C@@H]21)C(=O)OCC [Perindopril],B
15,CCC(c1ccccc1)c1c(O)c2ccccc2oc1=O (stereo not shown) [Phenprocoumon],O
16,O=C1NC(=O)C(c2ccccc2)(c2ccccc2)N1 [Phenytoin],B
17,CN1C(C(=O)Nc2ccccn2)=C(O)c2ccccc2S1(=O)=O [Piroxicam],B

row,SMILES,Type: Type of interaction
1,COc1cc2nc(N3CCN(C(=O)c4ccco4)CC3)nc(N)c2cc1OC [Prazosin],O
2,C[C@]12C=CC(=O)C=C1CC[C@@H]1[C@@H]2C(=O)C[C@@]2(C)[C@H]1CC[C@]2(O)C(=O)CO [Prednisone],O
3,CCC1(c2ccccc2)C(=O)NCNC1=O [Primidone],B
4,CCCC(C(=O)OCCN(CC)CC)(c1ccccc1)c1ccccc1 [Proadifen],O
5,CCC(=O)[C@@]1(C)CC[C@H]2[C@@H]3CCC4=CC(=O)CCC4=C3CC[C@@]21C [Promegestone],O
6,CC(=O)N[C@H]1/C(=N/OC(=O)Nc2ccccc2)O[C@H](CO)[C@@H](O)[C@@H]1O [Pugnac],B
7,O=C(c1ccc(OCCN2CCCCC2)cc1)c1c(-c2ccc(O)cc2)sc2cc(O)ccc12 [Raloxifene],B
8,O=c1c(O)c(-c2ccc(O)c(O)c2)oc2cc(O)cc(O)c12 [meletin],B
9,Nc1ccc(O)c(C(=O)O)c1 [mesalamine],B
10,Cc1cccc(C)c1N(Cn1cccn1)C(=O)CCl [metazachlor],B
11,Cc1nc2nc(N)[nH]c(=O)c2nc1[C@@H](C)Nc1ccc(C[C@H](O)[C@H](O)[C@H](O)CO[C@H]2O[C@H](COP(=O)(O)O[C@@H](CCC(=O)O)C(=O)O)[C@@H](O)[C@H]2O)cc1 [methanopterin],B
12,Clc1ccc(COC(Cn2ccnc2)c2ccc(Cl)cc2Cl)c(Cl)c1 (stereo not shown) [miconazole],O
13,CCCCN1C[C@H](O)[C@@H](O)[C@H](O)[C@H]1CO [miglustat],O
14,CN1CCN2c3ncccc3Cc3ccccc3C2C1 (stereo not shown) [mirtazapine],B
15,CN(C)c1cccc2c(S(=O)(=O)NCCCCCN)cccc12 [monodansylcadaverine],O
16,CCOc1cc(N)c(Cl)cc1C(=O)NCC1CN(Cc2ccc(F)cc2)CCO1 (stereo not shown) [mosapride],O
17,CC(C)[C@H]1CC[C@H](C(=O)N[C@H](Cc2ccccc2)C(=O)O)CC1 [nateglinide],O
